In patent US11324803B2, “Methods and compositions for treatment of Gaucher Disease via modulation of C5a receptor” (Children's Hospital Medical Center, priority 2015, dated 2022):

Legend:
GCase = molecular target: T1, GCase (Mus musculus, UniProt P17439); assay: CBE-induced GCase deficiency (pharmacologically-induced Gaucher disease) in mice; assay type: in vivo
T1 construct: endogenous in cells; host or cells: WT, C5aR1-/-, C5aR2-/-, Fcer1g-/- and Fcgr2b-/- mice, in vivo
T1 sequence (P17439 20-515): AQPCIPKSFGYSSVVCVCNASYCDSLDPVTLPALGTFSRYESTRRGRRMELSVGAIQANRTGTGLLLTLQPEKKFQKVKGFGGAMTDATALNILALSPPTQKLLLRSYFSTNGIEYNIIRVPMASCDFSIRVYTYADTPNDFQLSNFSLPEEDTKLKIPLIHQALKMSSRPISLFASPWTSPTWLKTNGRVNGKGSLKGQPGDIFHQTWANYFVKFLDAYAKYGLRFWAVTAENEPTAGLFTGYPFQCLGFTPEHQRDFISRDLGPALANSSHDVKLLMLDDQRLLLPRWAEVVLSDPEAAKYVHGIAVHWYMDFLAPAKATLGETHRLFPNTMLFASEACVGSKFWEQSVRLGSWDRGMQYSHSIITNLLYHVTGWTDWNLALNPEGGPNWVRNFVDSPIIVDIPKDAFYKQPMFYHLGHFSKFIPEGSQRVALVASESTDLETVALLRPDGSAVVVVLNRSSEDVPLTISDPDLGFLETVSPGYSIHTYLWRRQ
Source text: Sera from human patients with Gaucher disease (n=10) and healthy volunteers (n=15) were from the freezer and de-identified. Human patients with Gaucher disease were diagnosed at Cincinnati Children's Hospital Medical Center (CCHMC). […] The study was approved by the ethics committee at CCHMC. In vivo C5aR1 deficiency or blockade in 9V/null mice and in a CBE-induced mouse model of Gaucher disease. To assess the impact of genetic or pharmacological targeting of C5aR1 on the inflammatory response in Gaucher disease, WT (n=10) and C5aR1^−/− mice (n=10) were treated with conduritol B epoxide (CBE), which is an irreversible inhibitor of acid β-glucosidase^24. More specifically, both mouse strains were injected intraperitoneally (i.p.) with 100 mg CBE/kg body weight or vehicle (PBS)/day for up to 60 days, which was the termination point of these experiments. After 60 days of the indicated treatment with CBE, immune cells (MΦs, DCs, and T cells) were purified from lung of these mouse strains and used for measurement of GC, costimulatory molecules, and several of the pro-inflammatory cytokines. In additional experiments, WT (n=15) or 9V/null mice (n=15) were injected with 100 μl of the C5aR antagonist A8^Δ71-73 (i.p. 0.5 mg/kg) or vehicle (100 μl, PBS) on five consecutive days. Five days after the final C5aRA treatment, liver, spleen and lung were separated and measured for GC accumulation. Further, DCs and CD4^+ T cells were purified from the lung of the indicated mouse strains and measured for costimulatory molecule expression and the production of pro-inflammatory cytokines. Preparation of tissue cells. Liver, spleen, lung and BM were harvested aseptically. Single cell suspensions from liver and lung were obtained from minced pieces that were treated with Liberase Cl (0.5 mg/mL) and DNase (0.5 mg/mL) in RPMI (45 min, 37° C.). Single cell suspensions from spleen were obtained by grinding and then filtration through a 70-micron cell strainer. […] For BM cells, femurs, tibias and humeri were flushed with sterile phosphate buffered saline (PBS), followed by RBC lysis (155 mM NH4Cl, 10 mM NaHCO3, 0.1 mM EDTA), passage through a strainer. Cells were then pelleted by centrifugation at 350×g. Viable cells were counted using a Neubauer chamber and trypan blue exclusion. DCs, MΦs, and CD4^+ T lymphocytes were purified from single cell suspensions of liver, spleen, and lung using CD11c, CD11b, and CD4 (L3T4) microbeads according to the manufacturer's protocol. The purity of the cells was ˜90%-95%.
To determine levels of IgG antibodies to GC or GS in mice and human Gaucher patients, 10 μg of GC or GS were dissolved in 1 ml of methanol and water to a final concentration of 10 μg/ml. One hundred microliters of this GC solution (1 μg/well) were used to coat a 96 well ELISA plate. In case of GS, plates were first filled with 300 µl of poly L lysine solution (0.1 mg/ml). After 10 minutes, excess solution was removed and plates were thoroughly rinsed with sterile water and allowed to dry for several hours. Such plates were then coated with 100 μl of indicated GS solution (1 μg/well). Both of these GC and GS coated plates were kept overnight at room temperature followed by three washings with PBS containing 1% Tween-20 (PBST). Test sera (100 μl; 1:100) isolated from WT (n=15) and 9V/null mice (n=15), CBE-treated (n=10) and untreated WT mice (n=10), as well as healthy humans (n=15) and untreated Gaucher disease patients (n=10), and control antibodies to GC were loaded into the lipid-coated wells followed by incubation for 1.5 hours at RT. […]

C5a receptor 1 = molecular target: T2, C5a receptor 1 (Rattus norvegicus, UniProt P97520); conditions: introduced orally; cited from earlier work
T2 construct: host or cells: rats, in vivo
T2 sequence (P97520 1-352): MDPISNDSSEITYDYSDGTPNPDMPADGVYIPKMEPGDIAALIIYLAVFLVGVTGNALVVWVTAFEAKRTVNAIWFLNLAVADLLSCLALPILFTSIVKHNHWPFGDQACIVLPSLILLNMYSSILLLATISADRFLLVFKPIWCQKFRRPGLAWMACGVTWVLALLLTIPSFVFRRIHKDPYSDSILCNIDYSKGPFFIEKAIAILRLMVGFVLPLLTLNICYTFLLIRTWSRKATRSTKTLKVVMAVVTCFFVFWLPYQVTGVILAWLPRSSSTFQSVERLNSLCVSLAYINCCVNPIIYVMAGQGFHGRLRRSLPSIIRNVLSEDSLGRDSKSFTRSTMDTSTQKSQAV

DCs and CD4+ T cells [1] = assay: DC / CD4+ T cell co-culture with C5a: cytokine production by ELISA; assay type: cell-based, mouse; conditions: cells from 9V/null mice vs WT, C5a 32 nM, 48 h co-culture
Description: (§1) To assess the GC-induced C5a influence on alteration in costimulatory molecules, DCs and CD4^+ T cells purified from lung of 9V/null and background matched WT mice (n=15, each group) were stimulated ex vivo in the presence and absence of different concentration of C5a (0,8,16, and 32 nM) for 24 hours at 37° C. DCs and CD4^+ T cells were purified liver, spleen, and lung of CBE-induced chemical model of Gaucher disease in C5aR1^−/− (n=10) and background-matched WT mice (n=10). These DCs were used to perform FACS staining with antibodies to CD40, CD80, and CD86, whereas CD4^+T cells were used to perform FACS staining with antibodies to CD40L and CD69. To assess the GC induced C5a impact on cytokines and chemokines production, DCs and CD4^+T cells (1:2.5 ratio) purified from lung of 9V/null (n=15) and background-matched WT mice (n=15) were co cultured in the presence and absence of C5a (32 nM) for 48 hours in complete medium. In additional experiments, indicated ratios ([…]) of DCs and CD4^+T cells purified from lung of CBE treated and untreated WT and C5aR1^−/− mice (n=10/each group) were co-cultured for 48 hrs in complete medium. Supernatant of these experiments were used to measure […], TNF-α, IL-1β, IL-6, IL-12p40, IL-12p70, IL-23, IL-17A/F and IL-23 by ELISA. […]

DCs and CD4+ T cells [2] = assay: C5a stimulation of DCs and CD4+ T cells: co-stimulatory molecule expression; assay type: cell-based, mouse; conditions: WT and 9V/null cells, C5a 0, 8, 16, 32 nM, 24 h
Description: as §1

[3] = WT mice treated for 30 days with CBE vs PBS

**Q.** Which “survival after daily injections of CBE for 60 days” value (GCase; C5aR1−/− mice, 100 mg CBE/kg/day i.p.) does the source give for `O[C@H]1[C@H](O)[C@@H](O)[C@@H]2O[C@@H]2[C@@H]1O` (racemic) [CBE, conduritol B epoxide] here?
**A.** survived

**Q.** And the “time of death under daily CBE injections” value (GCase; C5aR2−/− mice, 100 mg CBE/kg/day i.p.)?
**A.** 29 to 35 days

**Q.** What about the “time of death under daily CBE injections” value (GCase; Fcer1g−/− mice, 100 mg CBE/kg/day i.p.) of the same molecule?
**A.** 29 to 36 days

**Q.** And the “time of death under daily CBE injections” value (GCase; Fcgr2b−/− mice, 100 mg CBE/kg/day i.p.)?
**A.** 29 to 36 days

**Q.** And the “serum levels of C5a” value (GCase; [3])?
**A.** elevated

**Q.** What about the “serum levels of IgG2a and IgG2b antibodies to GC” value (GCase; [3]) of the same molecule?
**A.** significantly elevated

**Q.** And the “time of death under daily CBE injections” value (GCase; WT mice, 100 mg CBE/kg/day i.p.)?
**A.** 29 to 35 days

**Q.** For AcF-[OP(D-Cha)WR], which “effect in rat models of acute inflammation” value (“effect in rat models” below) (C5a receptor 1) is on record?
**A.** beneficial

**Q.** For HC-[OP(D-Cha)WR], which “effect in rat models” value (C5a receptor 1) is on record?
**A.** beneficial

**Q.** Which “effect in rat models” value (C5a receptor 1) does the source give for PMX53 here?
**A.** beneficial

B1: C5a: small peptide of the complement anaphylatoxin family, cleaved from C5 (protein, UniProt P01031 678-751, looked up)
C5a anaphylatoxin: TLQKKIEEIAAKYKHSVVKKCCYDGACVNNDETCEQRAARISLGPRCIKAFTECCVVASQLRANISHKDMQLGR
modifications: C5a anaphylatoxin
notes: small peptide of the complement anaphylatoxin family, cleaved from C5
**Q.** With B1 as the molecule, how does the “production of IFN-γ, TNF-α, IL-1β, IL-6, and IL-17” value (DCs and CD4+ T cells [1]) read?
**A.** dramatically increased

**Q.** What about the “expression levels of CD40, CD80, CD86 and CD40L and CD69” value (DCs and CD4+ T cells [2]) of the same molecule?
**A.** increased
